According to article PMC11876601 (Molecular Systems Biology, 2025):
Several values for one entry are separate records, joined by “and”; a condition that tells them apart may be missing. Equal entries are not always repeated. Where two headings read alike, the source gives them in different places. Values belong to the compound of their own block, whether it stands above or below them.

Tests used:
Suit2-07 cells = assay: Cell proliferation assay, GEM + ATR inhibitor (Incucyte confluence, 72 h); format: cell-based, human; settings: for EC50: Homo sapiens; for Response: R1; for Curve top: plateau of fitted curve, ratio drug/vehicle confluence;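 for all read-outs here: Suit2-07 cells grown in 96-well plates at 37 °C, 5% CO2, raw 72 h confluence taken without normalizing to starting confluence, each experiment done in triplicate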
SYK = settings: 4 cell line mix lysate, Kinobeads y, ref Klaeger et al. (2017); cited from earlier work
MAPK10 = settings: MAPK10, 4 cell line mix lysate, Kinobeads y, ref Klaeger et al. (2017); cited from earlier work
CAMK2G = settings: 4 cell line mix lysate, Kinobeads y, ref Klaeger et al. (2017); cited from earlier work
MARK4 = settings: MARK4, 4 cell line mix lysate, Kinobeads y, ref Klaeger et al. (2017); cited from earlier work
MARK3 = settings: MARK3, 4 cell line mix lysate, Kinobeads y, ref Klaeger et al. (2017); cited from earlier work
MiaPaCa-2 = assay: cells; set-up: ATPlite luminescence viability of PDAC cell lines, 11-dose single-agent curves, 4-parameter fit; settings: Homo sapiens, MIA PaCa-2, 72 h, read-out: EC50 [nM]
How it was run: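 cells (1000 to 5000 per well) seeded 24 h before drug addition in a combination screen at 0.2% final DMSO. Controls were drug-free wells (negative) and 5 µM staurosporine (positive).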

BMP2K = settings: 4 cell line mix lysate, Kinobeads y, ref Klaeger et al. (2017); cited from earlier work
MAP4K1 = settings: MAP4K1, 4 cell line mix lysate, Kinobeads y, ref Klaeger et al. (2017); cited from earlier work
AURKB = settings: 4 cell line mix lysate, Kinobeads y, ref Klaeger et al. (2017); cited from earlier work
RET = settings: 4 cell line mix lysate, Kinobeads y, ref Klaeger et al. (2017); cited from earlier work
CLK1 = settings: CLK1, 4 cell line mix lysate, Kinobeads y, ref Klaeger et al. (2017); cited from earlier work

Compound: C[C@@H]1COCCN1c1cc(C2([S@](C)(=N)=O)CC2)nc(-c2cc[nH]c3nccc2-3)n1 [Ceralasertib]
EC50 (Suit2-07 cells; 72 h, Suit2-07, experiment ATRi (ATR inhibitor alone), -log10 of EC50 [M], read-out: pEC50 (converted)): 3.24e-06 M | EC50 (Suit2-07 cells; 72 h, Suit2-07, experiment ATRi (ATR inhibitor alone), mean (one replicate), read-out: EC50 mean): 3.24e-06 M | EC50 (Suit2-07 cells; 72 h, Suit2-07, experiment ATRi (ATR inhibitor alone), replicate R1, read-out: EC50): 3.24e-06 M | Response (Suit2-07 cells; Suit2-07, GEM+ATRi_dose1, GEM 0 nM + ATRi 10 nM, in % (unit assumed)): 99.44 | Response (Suit2-07 cells; Suit2-07, GEM+ATRi_dose1, GEM 1 nM + ATRi 10 nM, in % (unit assumed)): 97.06 | Response (Suit2-07 cells; Suit2-07, GEM+ATRi_dose1, GEM 3 nM + ATRi 10 nM, in % (unit assumed)): 98.33 | Response (Suit2-07 cells; Suit2-07, GEM+ATRi_dose1, GEM 10 nM + ATRi 10 nM, in % (unit assumed)): 33.90 | Response (Suit2-07 cells; Suit2-07, GEM+ATRi_dose1, GEM 30 nM + ATRi 10 nM, in % (unit assumed)): 18.26 | Response (Suit2-07 cells; Suit2-07, GEM+ATRi_dose1, GEM 100 nM + ATRi 10 nM, in % (unit assumed)): 14.84 | Response (Suit2-07 cells; Suit2-07, GEM+ATRi_dose1, GEM 300 nM + ATRi 10 nM, in % (unit assumed)): 14.60 | Response (Suit2-07 cells; Suit2-07, GEM+ATRi_dose1, GEM 1000 nM + ATRi 10 nM, in % (unit assumed)): 10.84 | Response (Suit2-07 cells; Suit2-07, GEM+ATRi_dose1, GEM 3000 nM + ATRi 10 nM, in % (unit assumed)): 13.52 | Response (Suit2-07 cells; Suit2-07, GEM+ATRi_dose2, GEM 0 nM + ATRi 3 nM, in % (unit assumed)): 99.06 | Response (Suit2-07 cells; Suit2-07, GEM+ATRi_dose2, GEM 1 nM + ATRi 3 nM, in % (unit assumed)): 97.53 | Response (Suit2-07 cells; Suit2-07, GEM+ATRi_dose2, GEM 3 nM + ATRi 3 nM, in % (unit assumed)): 42.89 | Response (Suit2-07 cells; Suit2-07, GEM+ATRi_dose2, GEM 10 nM + ATRi 3 nM, in % (unit assumed)): 18.83 | Response (Suit2-07 cells; Suit2-07, GEM+ATRi_dose2, GEM 30 nM + ATRi 3 nM, in % (unit assumed)): 15.03 | Response (Suit2-07 cells; Suit2-07, GEM+ATRi_dose2, GEM 100 nM + ATRi 3 nM, in % (unit assumed)): 14.03 | Response (Suit2-07 cells; Suit2-07, GEM+ATRi_dose2, GEM 300 nM + ATRi 3 nM, in % (unit assumed)): 10.54 | Response (Suit2-07 cells; Suit2-07, GEM+ATRi_dose2, GEM 1000 nM + ATRi 3 nM, in % (unit assumed)): 10.54 | Response (Suit2-07 cells; Suit2-07, GEM+ATRi_dose2, GEM 3000 nM + ATRi 3 nM, in % (unit assumed)): 14.48 | Response (Suit2-07 cells; Suit2-07, GEM+ATRi_dose3, GEM 0 nM + ATRi 30 nM, in % (unit assumed)): 99.04 | Response (Suit2-07 cells; Suit2-07, GEM+ATRi_dose3, GEM 1 nM + ATRi 30 nM, in % (unit assumed)): 98.92 | Response (Suit2-07 cells; Suit2-07, GEM+ATRi_dose3, GEM 3 nM + ATRi 30 nM, in % (unit assumed)): 74.44 | Response (Suit2-07 cells; Suit2-07, GEM+ATRi_dose3, GEM 10 nM + ATRi 30 nM, in % (unit assumed)): 18.78 | Response (Suit2-07 cells; Suit2-07, GEM+ATRi_dose3, GEM 30 nM + ATRi 30 nM): 15.93 | Response (Suit2-07 cells; Suit2-07, GEM+ATRi_dose3, GEM 100 nM + ATRi 30 nM, in % (unit assumed)): 13.11 | Response (Suit2-07 cells; Suit2-07, GEM+ATRi_dose3, GEM 300 nM + ATRi 30 nM, in % (unit assumed)): 12.75 | Response (Suit2-07 cells; Suit2-07, GEM+ATRi_dose3, GEM 1000 nM + ATRi 30 nM, in % (unit assumed)): 9.23 | Response (Suit2-07 cells; Suit2-07, GEM+ATRi_dose3, GEM 3000 nM + ATRi 30 nM, in % (unit assumed)): 13.00 | Response (Suit2-07 cells; Suit2-07, experiment ATRi, ATRi 3 nM, GEM 0 nM, in % (unit assumed)): 99.07 | Response (Suit2-07 cells; Suit2-07, experiment ATRi, ATRi 10 nM, GEM 0 nM, in % (unit assumed)): 99.08 | Response (Suit2-07 cells; Suit2-07, experiment ATRi, ATRi 30 nM, GEM 0 nM, in % (unit assumed)): 98.55 | Response (Suit2-07 cells; Suit2-07, experiment ATRi, ATRi 100 nM, GEM 0 nM, in % (unit assumed)): 98.02 | Response (Suit2-07 cells; Suit2-07, experiment ATRi, ATRi 300 nM, GEM 0 nM, in % (unit assumed)): 95.91 | Response (Suit2-07 cells; Suit2-07, experiment ATRi, ATRi 1000 nM, GEM 0 nM, in % (unit assumed)): 89.97 | Response (Suit2-07 cells; Suit2-07, experiment ATRi, ATRi 3000 nM, GEM 0 nM, in % (unit assumed)): 57.79 | Response (Suit2-07 cells; Suit2-07, experiment ATRi, ATRi 10000 nM, GEM 0 nM, in % (unit assumed)): 20.77 | Curve top (Suit2-07 cells; Suit2-07, experiment GEM+ATRi_dose1): 0.15 | Curve top (Suit2-07 cells; Suit2-07, experiment GEM+ATRi_dose2): 0.14 | Curve top (Suit2-07 cells; Suit2-07, experiment GEM+ATRi_dose3): 0.13

Compound: Nc1ccn([C@@H]2O[C@H](CO)[C@@H](O)C2(F)F)c(=O)n1 [GEM, Gemcitabine]
EC50 (Suit2-07 cells; 72 h, Suit2-07, experiment GEM (GEM alone, in the series of the ATRi named in column Drug), -log10 of EC50 [M], read-out: pEC50 (converted)): 8.32e-09 M | EC50 (Suit2-07 cells; 72 h, Suit2-07, experiment GEM (GEM alone, in the series of the ATRi named in column Drug), mean (one replicate), read-out: EC50 mean): 8.26e-09 M | EC50 (Suit2-07 cells; 72 h, Suit2-07, experiment GEM (GEM alone, in the series of the ATRi named in column Drug), replicate R1, read-out: EC50): 8.26e-09 M | EC50 (Suit2-07 cells; Suit2-07, experiment GEM (GEM alone, in the series of the ATRi named in column Drug), -log10 of EC50 [M], read-out: pEC50 (converted)): 1.05e-08 M | Response (Suit2-07 cells; Suit2-07, GEM 1 nM, ATRi 0 nM (GEM), in % (unit assumed)): 97.46 | Response (Suit2-07 cells; Suit2-07, GEM 3 nM, ATRi 0 nM (GEM), in % (unit assumed)): 93.41 | Response (Suit2-07 cells; Suit2-07, GEM 10 nM, ATRi 0 nM (GEM), in % (unit assumed)): 45.15 | Response (Suit2-07 cells; Suit2-07, GEM 30 nM, ATRi 0 nM (GEM), in % (unit assumed)): 20.11 | Response (Suit2-07 cells; Suit2-07, GEM 3000 nM, ATRi 0 nM (GEM), in % (unit assumed)): 10.86 | Response (Suit2-07 cells; Suit2-07, experiment GEM, GEM 1 nM, ATRi 0 nM, in % (unit assumed)): 98.60 and 97.96 and 97.60 | Response (Suit2-07 cells; Suit2-07, experiment GEM, GEM 3 nM, ATRi 0 nM, in % (unit assumed)): 96.04 and 96.69 and 98.44 | Response (Suit2-07 cells; Suit2-07, experiment GEM, GEM 10 nM, ATRi 0 nM, in % (unit assumed)): 49.03 and 57.12 and 55.81 | Response (Suit2-07 cells; Suit2-07, experiment GEM, GEM 30 nM, ATRi 0 nM, in % (unit assumed)): 23.93 and 25.24 and 25.44 | Response (Suit2-07 cells; Suit2-07, experiment GEM, GEM 100 nM, ATRi 0 nM, in % (unit assumed)): 15.01 | Response (Suit2-07 cells; Suit2-07, experiment GEM, GEM 300 nM, ATRi 0 nM, in % (unit assumed)): 14.46 | Response (Suit2-07 cells; Suit2-07, experiment GEM, GEM 1000 nM, ATRi 0 nM, in % (unit assumed)): 10.89 | Response (Suit2-07 cells; Suit2-07, experiment GEM, GEM 3000 nM, ATRi 0 nM, in % (unit assumed)): 10.34

Compound: C[C@]12O[C@H](C[C@]1(O)CO)n1c3ccccc3c3c4c(c5c6ccccc6n2c5c31)CNC4=O [Lestaurtinib]
EC50 (SYK): […] | EC50 (MAPK10): 33.2 nM | EC50 (CAMK2G): […] | EC50 (MARK4): […] | EC50 (MARK3): […] | EC50 (MiaPaCa-2): 275 nM | EC50 (BMP2K): 323 nM | EC50 (MAP4K1): 347 nM | EC50 (AURKB): […] | EC50 (RET): […] | EC50 (CLK1): […]

EC50 (MiaPaCa-2): 82.2 nM
Compound: CCN1CCN(Cc2ccc(Nc3ncc(F)c(-c4cc(F)c5nc(C)n(C(C)C)c5c4)n3)nc2)CC1 [Abemaciclib]
